Assay results: PubChem BioAssay (NCI)
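These data come from cells grown in 96-well plates and exposed to compound for 48 hours at five concentrations. Here, GI50 denotes the concentration required for 50% inhibition of growth. At the TGI there is no net growth.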

What was measured:
Experiment in all cases: NCI-60 cell line screen, 48 h
[1] = system: NCI-H522 lung
[2] = system: UO-31 renal
[3] = system: MDA-MB-435
[4] = system: HOP-92 NSCLC
[5] = system: RPMI-8226 leukemia
[6] = system: NCI-H460 lung
[7] = system: EKVX NSCLC
[8] = system: ACHN renal
[9] = system: OVCAR-8 ovarian
[10] = system: SK-MEL-2 melanoma
[11] = system: TK-10 renal
[12] = system: T-47D breast
[13] = system: SN12C renal
[14] = system: RXF 393 renal
[15] = system: SNB-19 CNS
[16] = system: DU-145 prostate
[17] = system: HCC-2998 colon
[18] = system: SF-268 CNS
[19] = system: SW-620 colon
[20] = system: 786-0 renal
[21] = system: KM12 colon
[22] = system: SR leukemia
[23] = system: A549 NSCLC
[24] = system: MALME-3M melanoma
[25] = system: IGROV1 ovarian
[26] = system: NCI-H226 lung
[27] = system: HOP-62 NSCLC
[28] = system: OVCAR-5 ovarian
[29] = system: HCT-15 colon
[30] = system: OVCAR-3 ovarian
[31] = system: CCRF-CEM leukemia
[32] = system: NCI/ADR-RES ovarian
[33] = system: MDA-MB-231 breast
[34] = system: UACC-257 melanoma
[35] = system: CAKI-1 renal
[36] = system: HT29 colon
[37] = system: SK-MEL-5 melanoma
[38] = system: HS 578T breast
[39] = system: A498 renal
[40] = system: SF-295 CNS
[41] = system: UACC-62 melanoma
[42] = system: HL-60(TB) leukemia
[43] = system: U251 CNS
[44] = system: OVCAR-4 ovarian
[45] = system: K-562 leukemia
[46] = system: HCT-116 colon
[47] = system: M14 melanoma
[48] = system: SK-MEL-28 melanoma
[49] = system: PC-3 prostate
[50] = system: COLO 205 colon
[51] = system: MOLT-4 leukemia
[52] = system: SF-539 CNS
[53] = system: SNB-75 CNS
[54] = system: BT-549 breast
[55] = system: LOX IMVI melanoma
[56] = system: SK-OV-3 ovarian
[57] = system: MCF7 breast

## N#Cc1c(-c2ccc(Cl)cc2)nc(SCc2ccc(F)cc2)nc1N1CCNCC1
[1]
  GI50: 1.61 µM
  TGI: 3.08 µM
[2]
  GI50: 1.4 µM
  TGI: 2.83 µM
[3]
  GI50: 1.68 µM
  TGI: 3.05 µM
[4]
  GI50: 1.61 µM
  TGI: 8.51 µM
[5]
  GI50: 2.19 µM
  TGI: 5.23 µM
[6]
  GI50: 1.97 µM
  TGI: 3.74 µM
[7]
  GI50: 4.98 µM
  TGI: 19.7 µM
[8]
  GI50: 1.8 µM
  TGI: 3.19 µM
[9]
  GI50: 1.84 µM
  TGI: 3.45 µM
[10]
  GI50: 14.7 µM
  TGI: 29.3 µM
[11]
  GI50: 10.6 µM
  TGI: 23.9 µM
[12]
  GI50: 1.69 µM
  TGI: 3.52 µM
[13]
  GI50: 1.73 µM
  TGI: 3.33 µM
[14]
  GI50: 1.53 µM
  TGI: 2.87 µM
[15]
  GI50: 2.21 µM
  TGI: 6.02 µM
[16]
  GI50: 2.59 µM
  TGI: 6.54 µM
[17]
  GI50: 1.8 µM
  TGI: 3.22 µM
[18]
  GI50: 2.27 µM
  TGI: 5.82 µM
[19]
  GI50: 1.98 µM
  TGI: 4.04 µM
[20]
  GI50: 1.61 µM
  TGI: 3.2 µM
[21]
  GI50: 1.91 µM
  TGI: 3.82 µM
[22]
  GI50: 1.99 µM
  TGI: 4.79 µM
[23]
  GI50: 1.61 µM
  TGI: 3.06 µM
[24]
  GI50: 1.69 µM
  TGI: 3.35 µM
[25]
  GI50: 1.8 µM
  TGI: 3.57 µM
[26]
  GI50: 5.97 µM
  TGI: 24.9 µM
[27]
  GI50: 1.64 µM
  TGI: 3.26 µM
[28]
  GI50: 2.2 µM
  TGI: 6.25 µM
[29]
  GI50: 1.81 µM
  TGI: 3.45 µM
[30]
  GI50: 1.89 µM
  TGI: 3.71 µM
[31]
  GI50: 2.82 µM
  TGI: 8.28 µM
[32]
  GI50: 1.73 µM
  TGI: 3.28 µM
[33]
  GI50: 1.83 µM
  TGI: 3.47 µM
[34]
  GI50: 1.64 µM
  TGI: 3.13 µM
[35]
  GI50: 1.4 µM
  TGI: 2.71 µM
[36]
  GI50: 1.74 µM
  TGI: 3.14 µM
[37]
  GI50: 14.3 µM
  TGI: 29.5 µM
[38]
  GI50: 1.95 µM
  TGI: 4.45 µM
[39]
  GI50: 14.3 µM
  TGI: 30.1 µM
[40]
  GI50: 1.88 µM
  TGI: 3.47 µM
[41]
  GI50: 1.76 µM
  TGI: 3.33 µM
[42]
  GI50: 1.83 µM
  TGI: 4.2 µM
[43]
  GI50: 1.69 µM
  TGI: 3.13 µM
[44]
  GI50: 1.78 µM
  TGI: 4.06 µM
[45]
  GI50: 2.09 µM
  TGI: 5.22 µM
[46]
  GI50: 1.72 µM
  TGI: 3.09 µM
[47]
  GI50: 1.67 µM
  TGI: 3.09 µM
[48]
  GI50: 1.74 µM
  TGI: 3.15 µM
[49]
  GI50: 1.79 µM
  TGI: 3.75 µM
[50]
  GI50: 1.75 µM
  TGI: 3.2 µM
[51]
  GI50: 2.43 µM
  TGI: 6.54 µM
[52]
  GI50: 1.71 µM
  TGI: 3.16 µM
[53]
  GI50: 1.46 µM
  TGI: 2.83 µM
[54]
  GI50: 7.59 µM
  TGI: 22.1 µM
[55]
  GI50: 1.7 µM
  TGI: 3.07 µM
[56]
  GI50: 10.4 µM
  TGI: 24.8 µM
[57]
  GI50: 1.65 µM
  TGI: 3.29 µM
